Results from patent US10550079B2, “Artificial self-sufficient cytochrome P450s” (University of Florida Research Foundation, Incorporated, priority 2015, dated 2020).

Key:
TxtE = TxtE (Streptomyces scabiei, UniProt C9ZDC6); assay: Nitration of fluorinated tryptophan substrates by TxtE; assay type: biochemical, S. scabies 87.22; design: inferred from the pET28 vector and Ni-NTA purification) (C); made in house; host or cells: E. coli BL21 (DE3)-GOLD
Protocol: (§1) P450 reactions contained 0.5 mM substrate, 1 mM NADP^+, 1 mM glucose, ˜10 units/mL self-prepared glucose dehydrogenase crude extract, 1 mM NOC-5 in 100 μL of Tris-HCl buffer (100 mM, pH 8.0). As the positive control, TxtE reaction was also re-constructed in the above mixture further supplemented with 0.43 μM spinach Fer and 0.33 μM Frd. The reactions were initiated by adding 1.5 μM P450s, and incubated at 20° C., 300 rpm on a thermostat (Eppendorf) for 2 hours. Methanol (200 μl) was then added to stop the reactions. After centrifugation, 10 μl solutions were analyzed by HPLC. […] The flow rate was set as 1.5 ml/min, and the products were detected at 211 nm with a PDA detector. […]
(§2) P450 reactions contained 0.5 mM substrate, 1 mM NADP^+, 1 mM glucose, ˜10 units/mL self-prepared glucose dehydrogenase crude extract, 1 mM NOC-5 [3-(aminopropyl)-1-hydroxy-3-isopropyl-2-oxo-1-triazene] in 100 μL of Tris-HCl buffer (100 mM, pH 8.0). […] After centrifugation, 10 μl solutions were analyzed by HPLC. […] The 4-NO2-l-tryptophan was synthesized in a large-scale enzymatic reaction to establish a standard curve for product quantification. […] NADPH consumption in enzyme reactions was measured at 340 nm (ε=6.22 mM^−1·cm^−1) with a Shimadzu UV2700 dual beam UV-Vis spectrophotometer. […] The quantity of nitrated product was determined by HPLC analysis as described above. […]

TxtE-BM3R = target: T1, TxtE-BM3R (UniProt C9ZDC6+P14779); assay: Nitration of fluorinated tryptophan substrates by TxtE-BM3R; assay type: biochemical, S. scabies 87.22 / B. megaterium ATCC 14581
T1 construct: P450BM3 (CYP102A1) reductase domain BM3R with its Domcut-predicted native linker, from B. megaterium ATCC 14581 (GenBank J04832.1); made in house; host or cells: E. coli BL21 (DE3)-GOLD
Protocol: as §1, §2

In the case of `N[C@@H](Cc1c[nH]c2cccc(F)c12)C(=O)O` [4-F-L-tryptophan], the “overall conversion rate relative to L-tryptophan” value (TxtE) is reported as “about 20%” and the “overall conversion rate relative to L-tryptophan” value (TxtE-BM3R) is reported as “about 20%”.
